{"source": "patent US5905073A", "about": "“Use of 2-hydroxy-5-phenylazobenzoic acid derivatives as colon cancer chemopreventative and chemotherapeutic agents” (priority 1996, dated 1999)", "key": {"HT-29 cells [1]": {"tested_on": "HT-29 cells", "test": "Dose response growth inhibition of HT-29 cells, Sulforhodamine B dye binding assay", "format": "cell-based, human", "conditions": "for IC50: Homo sapiens", "method": "(§1) For dose response studies a sensitive dye binding assay was adapted which allows simultaneous assay of multiple agents and doses in 96-well plates. Cells were plated and allowed to adhere for 24 hours prior to addition of the study drug. Cell densities were then determined 4 days later by fixation of the wells and staining with Sulforhodamine B dye."}, "human colon cancer cells": {"tested_on": "human colon cancer cells", "test": "Colon cancer cell proliferation in vitro, comparative statements", "format": "cell-based", "method": "(§2) Cells were grown in Dulbeccos Modified Eagle medium supplemented with 10% calf serum in an atmosphere of 5% CO2 at 37° C. For growth experiments, cells were seeded into 24-well tissue culture dishes (2 cm^2 /well) at a density of 20,000 cells/well and allowed to attach for 12 hours. The growth medium was then changed and replaced with fresh media containing the test drugs.\n(§3) The test drugs were dissolved in tissue culture media at the desired concentration and added to individual wells. To determine the number of cells per well, media was removed and the cells washed with phosphate buffered saline solution. The cells were then incubated 15 minutes with trypsin-EDTA solution until detached. The detached cells were then removed from the wells and counted using a Coulter Counter (Model ZBI).\n(§4) The cell numbers shown in Table I are the average of triplicate culture wells.\nas §1, with “dye. Optical density of the stained cultures was then determined using a 96-well plate reader at 495 nm (Skehan et al. (1990) J. Natl. Cancer Inst. 82:1107-1112).” for “dye.”\nTwo such oxidation products, gentisic acid (Dull et al. (1987) Biochem. Pharmacol. 36:2467-2472) and 5-nitro-salicylate (Laffafian et al. (1991) Biochem. Pharmacol. 42:1869-1874) have been elucidated."}, "HRT-18 cells": {"tested_on": "HRT-18 cells", "test": "Growth inhibition of HRT-18 colon cancer cells", "format": "cell-based", "conditions": "Homo sapiens; HRT-18, Table IV; read-out: IC50 for inhibition of human colon cancer cell proliferation", "method": "as §1"}, "LS174T cells [2]": {"tested_on": "LS174T cells", "test": "Dose response growth inhibition of LS174T cells, Sulforhodamine B dye binding assay", "format": "cell-based, human", "conditions": "for IC50: Homo sapiens", "method": "as §1"}, "LoVo cells": {"tested_on": "LoVo cells", "test": "Growth inhibition of LoVo colon cancer cells", "format": "cell-based", "conditions": "Homo sapiens, Table IV, read-out: IC50 for inhibition of human colon cancer cell proliferation", "method": "as §1"}, "colon cancer incidence": {"tested_on": "colon cancer incidence", "conditions": "cited from earlier work"}, "LS174T cells [3]": {"tested_on": "LS174T cells", "test": "Proliferation of LS174T colon cancer cells, Coulter Counter cell count", "format": "cell-based, human", "conditions": "for Cell No. on Day 10: average of triplicate wells; for activity at 10000 µM: 240 h", "method": "as §2, §3, §4"}, "HT-29 cells [4]": {"tested_on": "HT-29 cells", "test": "Proliferation of HT-29 colon cancer cells, Coulter Counter cell count", "format": "cell-based, human", "conditions": "for Cell No. on Day 10: average of triplicate wells; for activity at 10000 µM: read-out: % of Control Cells", "method": "as §2, §3, §4"}, "colon cancer cells": {"tested_on": "colon cancer cells", "test": "5-ASA growth inhibitory activity following hypochlorite exposure", "format": "cell-based", "conditions": "for inhibition at 10000 µM: 5-ASA 10 mM, read-out: Increase in Growth Inhibition", "from_the_text": "Indeed certain of its therapeutic benefits in the treatment of intestinal inflammation are thought to be derived from its ability to scavenge free radicals including O2^- released from inflammatory cells and thereby reduced oxidative damage."}, "[5]": {"conditions": "cited from earlier work; for absorption: oral balsalazide"}, "LS174T cells [6]": {"tested_on": "LS174T cells", "test": "LS174T growth with freshly dissolved or pre-dissolved 5-ASA", "format": "cell-based", "conditions": "Homo sapiens, 96 h", "method": "Cells were grown an additional 4 days prior to quantitation."}, "nitrosamine formation": {"tested_on": "nitrosamine formation", "conditions": "from arginine-dependent nitric oxide; cited from earlier work"}, "[7]": {"tested_on": "rectal mucosal reactive oxygen metabolite production", "conditions": "rectal biopsies, ulcerative colitis patients; cited from earlier work"}, "polyps": {"tested_on": "polyps", "conditions": "cited from earlier work; for effect on polyps: sulindac: nine familial polyposis patients, randomized placebo-controlled double-blind crossover"}, "[8]": {"conditions": "in vivo; cited from earlier work"}, "colon carcinogenesis": {"tested_on": "colon carcinogenesis", "conditions": "cited from earlier work"}, "[9]": {"conditions": "HT-29, Table IV, read-out: IC50 for inhibition of human colon cancer cell proliferation"}, "[10]": {"conditions": "Table IV, read-out: IC50 for inhibition of human colon cancer cell proliferation"}, "[11]": {"conditions": "Homo sapiens, 10 mM, Day 10, read-out: % of Control Cells"}, "[12]": {"conditions": "Homo sapiens, 240 h, HT-29, 10 mM, Day 10"}}, "note": "Entries after “also recorded” stand apart in the source; their conditions may differ. Like-named read-outs stand apart in the source and are kept apart here."}
{"smiles": "O=C(O)c1cc(O)ccc1O", "note": "[Gentisate, gentisic acid]", "values": [{"measurement": "IC50", "setting": "HT-29 cells [1]; [9]", "value": 5.05, "unit": "mM"}, {"measurement": "inhibition of colon cancer cell growth (in words)", "setting": "human colon cancer cells", "value": "inhibited cell growth"}, {"measurement": "IC50", "setting": "HRT-18 cells", "value": 2.98, "unit": "mM"}, {"measurement": "IC50", "setting": "LS174T cells [2]; [10]", "value": 5.85, "unit": "mM"}, {"measurement": "IC50", "setting": "LoVo cells", "value": 4.42, "unit": "mM"}]}
{"smiles": "CC(=O)Oc1ccccc1C(=O)O", "note": "[Ac-salicylic acid, acetyl salicylic acid]", "values": [{"measurement": "risk of colon cancer development", "setting": "colon cancer incidence; retrospective study (Kune et al.)", "value": "halving"}, {"measurement": "increased risk of colon cancer", "setting": "colon cancer incidence; retrospective study (Paganini-Hill et al.)", "value": 50, "unit": "%"}, {"measurement": "inhibition of colon cancer cell growth (in words)", "setting": "human colon cancer cells", "value": "potently inhibitory"}, {"measurement": "Cell No. on Day 10", "setting": "LS174T cells [3]; 10 mM", "value": 8300}, {"measurement": "activity at 10000 µM", "setting": "LS174T cells [3]; Homo sapiens, read-out: % of Control Cells", "value": 2.24, "unit": "%"}, {"measurement": "Cell No. on Day 10", "setting": "HT-29 cells [4]; HT-29, 10 mM", "value": 14625}, {"measurement": "activity at 10000 µM", "setting": "HT-29 cells [4]; Homo sapiens, HT-29, 240 h", "value": 1.11, "unit": "%"}]}
{"smiles": "[Na+].[O-]Cl", "note": "[NaOCl, sodium hypochlorite]", "values": [{"measurement": "Background inhibitory activity", "setting": "colon cancer cells; 0.4 mM NaOCl", "value": "less than 2%"}]}
{"smiles": "O=C(O)c1cc([N+](=O)[O-])ccc1O", "note": "[5-NSA, 5-nitro-salicylate]", "values": [{"measurement": "IC50", "setting": "HT-29 cells [1]; [9]", "value": 1.63, "unit": "mM"}, {"measurement": "IC50", "setting": "HRT-18 cells", "value": 1.46, "unit": "mM"}, {"measurement": "IC50", "setting": "LS174T cells [2]; [10]", "value": 2.69, "unit": "mM"}, {"measurement": "IC50", "setting": "LoVo cells", "value": 1.38, "unit": "mM"}]}
{"smiles": "Nc1ccc(O)c(C(=O)O)c1", "note": "[5-ASA, 5-aminosalicylic acid]", "values": [{"measurement": "increase in cell number", "setting": "HT-29 cells [1]; HT-29, 0.1-4 mM", "value": "approximately 20%"}, {"measurement": "IC50", "setting": "HT-29 cells [1]; [9]", "value": 11.9, "unit": "mM"}, {"measurement": "IC50", "setting": "HT-29 cells [1]; HT-29, text (FIG. 5), read-out: IC50", "value": 11.8, "unit": "mM"}, {"measurement": "conversion to N-acetyl-5-ASA and excretion in urine", "setting": "[5]; single dose of balsalazide, 96-hour period", "value": "majority"}, {"measurement": "Cell No. on Day 10", "setting": "LS174T cells [3]; 10 mM", "value": 8675}, {"measurement": "inhibition at 10000 µM", "setting": "LS174T cells [3]; Homo sapiens, 10 mM, read-out: growth inhibition", "value": 85, "unit": "%"}, {"measurement": "activity at 10000 µM", "setting": "LS174T cells [3]; [11]", "value": 1.22, "unit": "%"}, {"measurement": "inhibition at 10000 µM", "setting": "colon cancer cells; Na hypochlorite 0 mM", "value": 0, "unit": "%"}, {"measurement": "inhibition at 10000 µM", "setting": "colon cancer cells; Na hypochlorite 0.01 mM", "value": 2, "unit": "%"}, {"measurement": "inhibition at 10000 µM", "setting": "colon cancer cells; Na hypochlorite 0.05 mM", "value": 4, "unit": "%"}, {"measurement": "inhibition at 10000 µM", "setting": "colon cancer cells; Na hypochlorite 0.1 mM", "value": 8, "unit": "%"}, {"measurement": "inhibition at 10000 µM", "setting": "colon cancer cells; Na hypochlorite 0.2 mM", "value": 26, "unit": "%"}, {"measurement": "inhibition at 10000 µM", "setting": "colon cancer cells; Na hypochlorite 0.3 mM", "value": 42, "unit": "%"}, {"measurement": "inhibition at 10000 µM", "setting": "colon cancer cells; Na hypochlorite 0.4 mM", "value": 48, "unit": "%"}, {"measurement": "Basal inhibitory activity", "setting": "colon cancer cells; unoxidized 5ASA", "value": 45, "unit": "%"}, {"measurement": "IC50", "setting": "HRT-18 cells", "value": 10.5, "unit": "mM"}, {"measurement": "Cell No. on Day 10", "setting": "HT-29 cells [4]; HT-29, 10 mM", "value": 512825}, {"measurement": "activity at 10000 µM", "setting": "HT-29 cells [4]; [12]", "value": 39, "unit": "%"}, {"measurement": "inhibition at 10000 µM", "setting": "HT-29 cells [4]; Homo sapiens, HT-29, 10 mM, read-out: growth inhibition", "value": 82, "unit": "%"}, {"measurement": "activity at 10000 µM", "setting": "LS174T cells [6]; 10 mM dissolved in culture media 4 days prior, read-out: growth response relative to control cultures", "value": 22.9, "unit": "%"}, {"measurement": "activity at 10000 µM", "setting": "LS174T cells [6]; freshly dissolved 10 mM, 4 days, read-out: growth response relative to control cells", "value": 82.7, "unit": "%"}, {"measurement": "increase in cell number", "setting": "LS174T cells [2]; 0.1-1.0 mM", "value": "approximately 20%"}, {"measurement": "IC50", "setting": "LS174T cells [2]; [10]", "value": 11.6, "unit": "mM"}, {"measurement": "IC50", "setting": "LS174T cells [2]; text (FIG. 5), read-out: IC50", "value": 11.5, "unit": "mM"}, {"measurement": "IC50", "setting": "LoVo cells", "value": 10.2, "unit": "mM"}, {"measurement": "inhibition of nitrosamine formation", "setting": "nitrosamine formation", "value": "inhibits nitrosamine formation"}, {"measurement": "reduction of rectal mucosal reactive oxygen metabolite production", "setting": "[7]", "value": "over 90%"}]}
{"smiles": "Nc1ccc(C(=O)NCCC(=O)O)cc1", "note": "[4-ABA, 4-aminobenzoyl-β-alanine]", "values": [{"measurement": "absorption", "setting": "[5]", "value": "poorly absorbed"}, {"measurement": "inhibition of colon cancer cell growth (in words)", "setting": "human colon cancer cells", "value": "inactive"}, {"measurement": "Cell No. on Day 10", "setting": "LS174T cells [3]; 10 mM", "value": 768700}, {"measurement": "activity at 10000 µM", "setting": "LS174T cells [3]; [11]", "value": 108, "unit": "%"}, {"measurement": "Cell No. on Day 10", "setting": "HT-29 cells [4]; HT-29, 10 mM", "value": 1316625}, {"measurement": "activity at 10000 µM", "setting": "HT-29 cells [4]; [12]", "value": 100, "unit": "%"}]}
{"smiles": "CC1=C(CC(=O)O)c2cc(F)ccc2/C1=C\\c1ccc([S+](C)[O-])cc1", "note": "(stereo not shown) [sulindac]", "values": [{"measurement": "time to regression of polyps", "setting": "polyps; nine familial polyposis patients", "value": "less than 4 months"}, {"measurement": "effect on polyps", "setting": "polyps", "value": "regression of polyps; also recorded: polyp growth resumed following sulindac withdrawal"}, {"measurement": "absorption / activation", "setting": "[8]", "value": "converted to its active metabolite, sulindac sulfide, by the colonic bacteria"}, {"measurement": "effect on tumor incidence, dimethylhydrazine-induced", "setting": "colon carcinogenesis", "value": "reduce tumor incidence only when present during carcinogen administration"}]}
{"smiles": "CC(=O)Nc1ccc(C(=O)NCCC(=O)O)cc1", "note": "[N-acetyl metabolite of 4-ABA]", "values": [{"measurement": "absorption", "setting": "[5]", "value": "poorly absorbed"}]}
{"smiles": "CC(=O)Nc1ccc(O)c(C(=O)O)c1", "note": "[N-acetyl-5-ASA]", "values": [{"measurement": "activity of N-acetyl metabolite of 5-ASA", "setting": "[5]; in vivo", "value": "inactive"}]}
{"smiles": "COc1ccc2c(c1)c(CC(=O)O)c(C)n2C(=O)c1ccc(Cl)cc1", "note": "[indomethacin]", "values": [{"measurement": "effect on polyps", "setting": "polyps", "value": "no influence on polyp regression"}, {"measurement": "absorption / activation", "setting": "[8]", "value": "absorbed primarily from the upper GI tract"}]}
